The values below come from patent US10053675B2, “Hydroxyphenylpyruvate dioxygenase polypeptides and methods of use” (SYNGENTA PARTICIPATIONS AG, priority 2009, dated 2018).

Data set [1] deals with T1, Avena-derived HPPD SEQ ID NO: 1 (Avena sativa, UniProt A0ACD5V6K6, DEL109-109). Briefly: biochemical. It is filed as binding. The note with it: for koff / Off rate k1, individual experiments: direct or indirect radiochemical method. How it is done:
On rates (governed by an association rate constant, kon) for the formation of the enzyme:inhibitor complexes, EI and off rates (governed by a dissociation rate constant, koff) were determined by methods known in the art and essentially as described in Hawkes et al. (2001) Proc. Bright. Crop. Prot. Conf. Weeds, 2:563-568 and in PCT Publication No. WO 02/46387).
Off rates (k1 in the scheme below) were derived from exchange rate studies where either the test inhibitor, I, or its exchange partner, J were radiolabelled and the data fit according to the scheme below. As noted in Hawkes et al. (2001) Proc. Bright. Crop. Prot. Conf.
After 30 minutes the exchange reaction was initiated with addition of 100 μl 1 mM ‘cold’ structure A with thorough mixing, and, immediately, 150 μl were withdrawn and loaded onto a NAP5 column, the protein exchanged into 50 mM BisTrisPropane buffer at pH 7.0 containing 0.1M KCl by rapid (<2 min) chromatography down a NAP5 G25 Sephadex® column (GE Healthcare Ltd, Buckinghamshire UK) and the amount of ^14C bound to protein measured by Optiphase scintillant using a Tri-Carb® 2900TR scintillation counter (Perkin Elmer, Wellesley, Mass.). Further aliquots were removed and measured in the same way at various times over minutes or hours as required in order to determine the exchange kinetics.
In this case, off rates were determined by preincubating ˜200 pmoles HPPD in reaction buffer (50 mM BTP pH 7, 25 mM Na ascorbate, 4 μg/ml bovine catalase, and 10% glycerol) containing ˜1.0 nmoles ^14C inhibitor at 25° C. in a total assay volume of 1.3 ml. After 30 minutes the reaction vessel was transferred to ice. After a further 10 minutes at ice temperature the exchange reaction was initiated by addition of 100 μl 1 mM Structure A, with thorough mixing, and 150 μl was withdrawn, loaded and quickly exchanged down a NAP5 column in a cold room at ˜5-8° C. in order to quantify the amount of radiolabel remaining bound to the protein at various time from the start of exchange at ice temperature.
Off rates (k1) of HPPD inhibitors that are not readily available radiolabelled or that present other measurement problems (for example high levels of background non-specific protein-binding which can be measured as radiolabel binding that persists in the presence of high concentrations of ‘cold’ inhibitor) may be measured indirectly. […] Exemplary methods are also described in PCT Publication No. WO 02/46387.

The test system of data set [2] is tobacco plants expressing wheat HPPD (A7WK82). Briefly: Glasshouse spray test on transgenic tobacco expressing wheat HPPD. It is filed as in vivo. As to conditions: 14 DAT. How it is done:
(§1) The CTP/HPPD encoding nucleotide sequence is edited by PCR (or initially synthesized) to include a 5′ XhoI site, a TMV omega enhancer (SEQ ID NO: 86) and a 3′ KpnI site (and to remove any such internal sites).
For example, a master plate of Agrobacterium tumefaciens containing the HPPD expressing binary vector is used to inoculate 10 ml LB (L broth) containing 100 mg/l rifampicin plus 50 mg/l kanamycin using a single bacterial colony. This is incubated overnight at 28° C. shaking at 200 rpm. This entire overnight culture is used to inoculate a 50 ml volume of LB containing the same antibiotics. Again this is cultured overnight at 28° C. shaking at 200 rpm. The Agrobacterium cells are pelleted by centrifuging at 3000 rpm for 15 minutes and then resuspended in MS (Murashige and Skoog) medium containing 30 g/l sucrose, pH 5.9 to an OD (600 nM)=0.6. This suspension is dispensed in 25 ml aliquots into petri dishes.
Clonally micro-propagated tobacco shoot cultures are used to excise young (not yet fully expanded) leaves. The mid rib and outer leaf margins are removed and discarded, and the remaining lamina cut into 1 cm squares. These are transferred to the Agrobacterium suspension for 20 minutes. […]
(§2) As shoots start to regenerate from the callusing leaf explants, these are removed to Shoot elongation medium (MS medium, 30 g/l sucrose, 8 g/l plantagar, 100 mg/l kanamycin, 200 mg/l timentin, 250 mg/l carbenicillin, pH 5.9). Stable transgenic plants readily root within 2 weeks. […]
(§3) Putative transgenic plants that are rooting and showing vigorous shoot growth on the medium incorporating kanamycin are analysed by PCR using primers that amplified a 500 bp fragment within the HPPD transgene. […]
(§4) A sub-set of about 30 plants were then selected on the basis of similar size from each population for spray testing. […] Plants were assessed for damage and scored at 14 days after treatment (DAT). […]

Data set [3] deals with T1, Avena-derived HPPD SEQ ID NO: 1. Put plainly: On rate (kon, k2) of enzyme:inhibitor complex formation. It is filed as binding. The note with it: read-out: On rate, activity based method.
Data set [4] relates to tobacco plants expressing Arabidopsis HPPD (SEQ ID NO: 13). Put plainly: Glasshouse spray test on transgenic tobacco expressing Arabidopsis HPPD. It is filed as in vivo. The note with it: 600 g/ha isoxaflutole, 14 DAT. How it is done: as §1
(§5) For example, a master plate of Agrobacterium tumefaciens containing the HPPD expressing binary vector is used to inoculate 10 ml LB (L broth) containing 100 mg/l rifampicin plus 50 mg/l kanamycin using a single bacterial colony. This is incubated overnight at 28° C. shaking at 200 rpm. This entire overnight culture is used to inoculate a 50 ml volume of LB containing the same antibiotics. Again this is cultured overnight at 28° C. shaking at 200 rpm. […]
as §2, §3, §4

Data set [5] deals with tobacco plants expressing Pseudomonas fluorescens HPPD (SEQ ID NO: 14). Briefly: Glasshouse spray test on transgenic tobacco expressing Pseudomonas HPPD. It is filed as in vivo. The note with it: 600 g/ha isoxaflutole, 14 DAT. How it is done:
as §1, §5, §2, §3, §4

Data set [6] addresses T1, Avena-derived HPPD SEQ ID NO: 1. Put plainly: HPPD assay for KmHPP and kcat (HPLC/UV quantitation of homogentisate). It is filed as biochemical. As to conditions: 25° C. As to the method:
The assay solution was transferred to Chromacol 03-CVG HPLC vials, sealed and the amount of homogentisate formed in a 40 μl aliquot determined by injection onto a reverse phase Aqua C18 5μ 75×4.6 mm HPLC column running 5.5% acetonitrile 0.1% TFA (Buffer A) at 1.5 ml/min. The column was eluted at 1.5 ml/minute using a 2 minute wash in buffer A, followed by a 2 minute wash in a 30/70 mixture of buffer A and 100% acetonitrile, and a further 3.5 minute wash in buffer A. The elution of homogentisate was monitored by UV at 292 nm and the amount formed in each reaction quantified by comparison with a standard calibration curve.
Km and Vmax values were determined (for example FIG. 1) using a non linear least squares fit using Grafit 4™ software (Erithacus Software, Middlesex, UK). Kcat values were determined by dividing the maximum rate, Vmax expressed in nmol/s by the number of nmoles of HPPD enzyme (based on the concentration determined by active-site titration).
For the alternative assumption of one active site per monomer then calculated kcat values should simply be correspondingly and systematically halved.

The mark [7] stands for this setting: Kd of inhibitor over Km HPP of SEQ ID NO: 1.
The mark [8] stands for this setting: 25° C., read-out: Off rate k1 / koff (average or final estimate).
[9] abbreviates: 25° C., individual measurements, read-out: Off rate k1, individual experiments.
The mark [10] stands for this setting: 25° C., individual measurements.

Where “and” joins values, the source holds several entries; their conditions need not be identical. Identical values can stand only once. Like-named read-outs stand apart in the source and are kept apart here.

As for `CCOc1c(S(C)(=O)=O)ccc(C(=O)C2C(=O)CC(C)CC2=O)c1Cl` (stereo not shown) [Compound A], in data set [1] (setting [7]), the Kd/Km ratio was 0.000036.

For `CS(=O)(=O)c1ccc(C(=O)C2C(=O)CCCC2=O)c([N+](=O)[O-])c1` [Compound B, mesotrione], the “Events exhibiting < or equal to 10% damage” value in data set [2] (600 g/ha mesotrione) is recorded as “Five out of 33”.

Consider `COCCOCc1nc(C(F)(F)F)ccc1C(=O)C1C(=O)C2CCC(C2)C1=O` (stereo not shown) [Compound C], for which the affinity in data set [1], expressed as Kd, was 7.1 nM. In addition, the koff was 5.3e-05 s⁻¹ in data set [1] (setting [8]) and 5.67e-05 s⁻¹ in data set [1] (setting [9]). Also, the Kd/Km ratio in data set [1] (setting [7]) is listed as 0.0013.

Consider `CS(=O)(=O)c1cc(C(F)(F)F)ccc1C(=O)C(C#N)C(=O)C1CC1` (stereo not shown) [Compound D], for which binding in data set [1] was put at a Kd of 1.36 nM. Besides, the figures for the koff in data set [1] (setting [8]) and in data set [1] (setting [9]) were 4.39e-05 s⁻¹ and 4.5e-05 s⁻¹, respectively. In addition, in data set [1] (setting [7]), the Kd/Km ratio came to 0.00025. Moreover, the kon in data set [3] worked out at 57000 M⁻¹ s⁻¹.

For `CS(=O)(=O)c1ccc(C(=O)C2C(=O)CCCC2=O)c(Cl)c1COCC(F)(F)F` [Compound E], in data set [1], the dissociation constant (Kd) (commonly the constant that tells how readily two partners part at equilibrium) was 0.228 nM and the Kd/Km ratio came to 0.000042. Also, the “Off rate k1, individual experiments” value in data set [1] (setting [10]) was 2.02E-05 s^−1 and 3.00E-05 s^−1 and 3.67E-05 s^−1 and 3.17E-05 s^−1 (2×) and 2.67E-05 s^−1 (2×) and 3.33E- 05 s^−1. Besides, in data set [1] (read-out: Off rate k1, individual experiments, 25° C., individual measurements), the koff worked out at 3.08e-05 s⁻¹.

`Cc1c(C(=O)C2C=NN(C)C2=O)ccc(S(C)(=O)=O)c1C1=NOCC1` (stereo not shown) [Compound F]: the koff in data set [1] (setting [8]) was 6.72e-05 s⁻¹; in data set [1] (setting [9]), 7.08e-05 s⁻¹. Further, in data set [1] (setting [10]), the “Off rate k1, individual experiments” value is 6e-05 s⁻¹ and 7e-05 s⁻¹ and 6.83e-05 s⁻¹.

`CS(=O)(=O)c1cc(C(F)(F)F)ccc1C(=O)c1cnoc1C1CC1` [isoxaflutole]: the Bleaching entry in data set [4] is “Full”; in data set [5] it was “Full and Partly”; in data set [2] (600 g/ha isoxaflutole) it was “Full and Green and Partly”. The “Plants showing 50% damage or less” value in data set [5] is given as 4/32. Further, the “Events showing less than 20% damage” value in data set [2] (600 g/ha isoxaflutole) was 3/33.

B1: SEQ ID NO: 1: the HPPD amino acid sequence of Avena sativa (protein, listed as Avena sativa)
chain: MPPTPATATGAAAAAVTPEHAARSFPRVVRVNPRSDRFPVLSFHHVELWCADAASAAGRFSFALGAPLAARSDLSTGNSAHASLLLRSGALAFLFTAPYAPPPQEAATAATASIPSFSADAARTFAAAHGLAVRSVGVRVADAAEAFRVSVAGGARPAFAPADLGHGFGLAEVELYGDVVLRFVSYPDETDLPFLPGFERVSSPGAVDYGLTRFDHVVGNVPEMAPVIDYMKGFLGFHEFAEFTAEDVGTTESGLNSVVLANNSEAVLLPLNEPVHGTKRRSQIQTYLEYHGGPGVQHIALASNDVLRTLREMRARTPMGGFEFMAPPQAKYYEGVRRIAGDVLSEEQIKECQELGVLVDRDDQGVLLQIFTKPVGDRPTFFLEMIQRIGCMEKDEVGQEYQKGGCGGFGKGNFSELFKSIEDYEKSLEVKQSVVAQKS
Consider B1, for which the Km (commonly the substrate concentration at which the rate is half of its maximum) in data set [6] (pH 7.0) is 5.38 µM. For the same molecule, the kcat average in data set [6] (one active-site per dimer assumed) came to 6.46 s⁻¹.
